Experimental data reported in patent US20230270676A1 (priority 2020, published 2023).

Legend:
Assay type in all cases: cell-based, human
SW-480 cells [1] = assay: Transwell migration experiment (SW-480); details: drug 15 μg/mL, 36 h, untreated group 100.0±11.7
Procedure: Each of the HCT116 and SW-480 cells in a logarithmic growth stage was taken and prepared into a suspension with a serum-free cell culture medium, counted, and diluted in folds, and a serum-free cell culture medium with the drug of 15 μg/mL was added. 200 μL of the suspension was inoculated into an upper chamber of a Transwell cell at a density of 1×10^5 cells/well, 500 μL of a 10% FBS-containing cell culture medium was added to a lower chamber of the Transwell cell, and the Transwell cell was incubated in a 5% CO2/37° C. incubator with saturated humidity for 36 h. The number of cells passing through the cell was counted, and cells in the upper chamber were gently wiped off with a cotton swab. Cells in the lower chamber were fixed with formaldehyde for 15 min, then stained with a 1% gentian violet staining solution for 30 min, and observed and counted under a microscope.

HCT116 cells [2] = assay: Plate cloning experiment for proliferation of tumor cells (HCT116); details: untreated group 62.0±7.6
Procedure: (§1) Each of the HCT116 and SW-480 cells in a logarithmic growth phase was prepared into a suspension with a 10% FBS-containing cell culture medium, blown into single cells, counted, inoculated into a six-well plate at a density of 1×10^3 cells/well, and cultivated in a 5% CO2/37° C. incubator with saturated humidity until the cells were adherent to the wall. […] After the administration, the cells were often observed, and when clone spheres visible to the naked eye appeared, the cell cultivation was stopped, the supernatant was discarded, the cells were washed twice with PBS, and 1 mL of 4% paraformaldehyde (PFA) was added to conduct fixation for 20 min. The fixation solution was removed, the cells were washed 3 times with PBS, a 1% gentian violet staining solution was added to conduct staining for 30 min, and then the cells were slowly rinsed with running water to remove the staining solution, dried in an oven at 37° C., and photographed and counted. Colony-forming efficiency (CFE)=(number of cell clones/number of inoculated cells)×100%. […] The colony number was calculated for each group.

HCT116 cells [3] = assay: Apoptosis of tumor cells by flow cytometry (Annexin V-FITC/PI); details: 48 h after administration, untreated group 16%
Procedure: 48 h after administration, a supernatant in each group was removed, the cells were washed with 1×PBS 3 times and then digested with EDTA-free trypsin for 2 min, and a 10% FBS-containing cell culture medium was added to stop the digestion. The resulting suspension was collected in a centrifuge tube and centrifuged at 1,000 rpm for 3 min, and resulting cells were washed twice with 1×PBS (4° C.) and resuspended in 400 μL of an Annexin V binding solution. 5 μL of an Annexin V-FITC staining solution was added, and the cells were incubated in the dark for 15 min. 10 μL of a PI staining solution was added, and the cells were incubated in the dark for 5 min. The cells were immediately tested by FC.

SW-480 cells [4] = assay: Plate cloning experiment for proliferation of tumor cells (SW-480); details: untreated group 36.1±7.5
Procedure: as §1

## CO[C@H]1C[C@@H]2CC[C@@H](C)[C@@](O)(O2)C(=O)C(=O)N2CCCC[C@H]2C(=O)O[C@H]([C@H](C)C[C@@H]2CC[C@@H](O)[C@H](OC)C2)CC(=O)[C@H](C)/C=C(\C)[C@@H](O)[C@@H](OC)C(=O)[C@H](C)C[C@H](C)/C=C/C=C/C=C/1C [free RAPA, rapamycin]
SW-480 cells [1]
  Percentage of cells passing through the cell: 57.4±10.6%
HCT116 cells [2]
  Colony number: 49.2±5.2
HCT116 cells [3]
  Apoptosis rate: 21%
SW-480 cells [4]
  Colony number: 33.2±3.7
